One substance from US20090093374A1, “METHOD OF ARRAYING CELLS AT SINGLE-CELL LEVEL INSIDE MI[…] AND METHOD OF ANALYSING CELLS USING THE SAME, AND CELL ANALYSIS CHIP USED FOR CARRYING OUT THE SAME” (priority 2007, published 2009) can be followed below.

Test [1] relates to a-type yeast cell. As to the kind of experiment: GFP expression of yeast cells arrayed in shallow rectangular microwells, cell solution pre-treated with α-factor (Embodiment 1). The format is cell-based, Saccharomyces cerevisiae. The settings on record: FIG. 14. An excerpt:
(§1) For example, to obtain information with regard to a mating of the yeast cell, a pheromone, e.g., so-called α-factor, may be injected into the fluidic channel as the analysis reagent. If an a-type yeast cell is used as the cell, it is preferable that a pheromone of which a sequence is TRP-HIS-TRP-LEU-GLN-LEU-LYS-PRO-GLY-GLN-PRO-MET-TYR, is used as α-factor. In a subsequent operation, when analyzing responses, it is possible to obtain information with regard to whether or not a protein related to the mating is created in a corresponding cell, and the amount of the protein.
(§2) For instance, in the case where the yeast cell is treated with α-factor, it is possible to observe whether or not a protein related to the mating is created and the amount of the protein through the expression intensity of a green fluorescent protein (GFP) with a time. Moreover, in the case where the yeast cell is treated with KCl, it is possible to find out the creation amount of corresponding proteins through a red fluorescent protein (RFP), and also analyze the response of the corresponding yeast cell upon the external stress.
A mixed solution in which a-type yeast cell solution using yeast extract peptone dextrose (YPD) medium had been pre-treated with α-factor, e.g., pheromone having a sequence of TRP-HIS-TRP-LEU-GLN-LEU-LYS-PRO-GLY-GLN-PRO-MET-TYR, was introduced into a fluidic channel through an inlet. The introduced mixed solution filled the fluidic channel through a capillary flow.
After that, the inlet was sealed with a tape so that the mixed solution was evaporated through an outlet. Accordingly, a receding meniscus was generated, allowing the cells to be arrayed in the well structures at a single-cell level. At this time, it took about 10 minutes for the cells to be arrayed while the meniscus was receding.
FIG. 14 is a micrograph showing GFP expression of a yeast cell with respect to α-factor according as a time elapses using the fluidic channel. […]

Test [2] concerns a-type yeast cell. The test can be described thus: GFP expression of yeast cells arrayed in deep rectangular microwells, α-factor introduced after arraying and cleaning (Embodiment 2). The class given is cell-based, Saccharomyces cerevisiae. The following applies: FIG. 15.
Excerpt: as §1, §2
An a-type yeast cell solution using YPD medium was introduced into a fluidic channel. The introduced cell solution was filled into the fluidic channel through a capillary flow. After that, the inlet was sealed with a tape so that the cell solution was evaporated through an outlet. Accordingly, a receding meniscus was generated, thereby allowing the cells to be arrayed in the well structures at a single-cell level.
Afterwards, a cleaning solution containing amino acid, nitrogen, glucose, etc was introduced through the capillary flow caused by a surface tension, residual cells remaining at a side of the inlet were cleaned. At this time, a tissue paper was placed in the outlet to absorb and remove the residual cells and the cleaning solution.
After the residual cells are completely cleaned, […] was also introduced into the microfluidic channel by the capillary flow caused by the surface tension. […]

[3] abbreviates: 30 minutes after α-factor treatment.
Where [4] appears, read: 60 minutes after α-factor treatment.
The mark [5] stands for this setting: 120 minutes after α-factor treatment (versus 60 minutes).

Take “TRP-HIS-TRP-LEU-GLN-LEU-LYS-PRO-GLY-GLN-PRO-MET-TYR (WHWLQLKPGQPMY; printed: TRP-HIS-TRP-LEU-GLN-LEU-LYS-PRO-GLY-GLN-PRO-MET-TYR) [α-factor, pheromone used as analysis reagent for mating response of a-type yeast cell]”: the GFP expression entry in test [1] (setting [3]) is given as “cannot be observed yet”; in test [1] (setting [4]), “observed to be bright”; in test [2] (setting [3]), “cannot be observed yet”; in test [2] (setting [4]) it was “observed to be bright”. Moreover, the GFP expression intensity result in test [1] (setting [5]) and in test [2] (setting [5]) was “does not vary” throughout.
